Measured values from patent US11492382B2, “Chimeric peptides with an antimicrobial domain and an inorganic binding domain” (priority 2017, dated 2022).
“Also recorded” adds a separate entry of the source. Like-named read-outs stand apart in the source and are kept apart here. Ends that are not written are not given here. Peptide text beside a SMILES is read from it.

Tests used:
[1] = test system: Escherichia coli, ATCC 25922
Description: The antibacterial activity against two strains of bacteria of a previously published cHABP1 peptide,^65,66 an antimicrobial peptide designed through artificial intelligence methods (HHC-36),^67 and a chimeric peptide cHABP1-GGG-HHC36 to functionalize calcium phosphate surfaces with antibacterial activity.

S. mutans (ATCC 25175) [2] = details: in solution; previously published values; cited from earlier work
[3] = test system: S. epidermidis (ATCC 29886); details: in solution; previously published values; cited from earlier work
[4] = test system: S. epidermidis (ATCC 29886); assay: AlamarBlue assay, minimum bactericidal concentration; type: cell-based
Procedure: (§1) The antimicrobial activity of TiBP-Spacer5-AMP was evaluated against two bacterial strains, S. mutans (American Type Culture Collection (ATCC) 25175, Manassas, Va.) and S. epidermidis (ATCC 29886). S. mutans cultures were prepared using Brain Heart Infusion Broth (BHI, BD Difco, Franklin Lakes, N.J.) and S. epidermidis using Nutrient Broth (NB, BD Difco) according to ATCC protocols. Bacterial pellets obtained from ATCC were rehydrated in appropriate media of which several drops were used to streak either BHI or NB agar plates. Bacteria streaked agar plates were subsequently incubated for 24 h. Agar plates and cultures were incubated at 37° C. in the presence of 5% CO2-supplemented atmosphere for S. mutans and in aerobic atmosphere and 200 rpm shaking for S. epidermidis. Overnight cultures were made by aseptically transferring a single-colony forming unit (CFU) into 10 mL of appropriate broth media followed by incubation in appropriate conditions for 16 h. Bacteria from overnight cultures were used to inoculate fresh media and grown to mid-log phase.
(§2) The MIC of TiBP-Spacer5-AMP against S. mutans and S. epidermidis in solution was evaluated in 96 well plates (Corning Costar 3370, Corning, N.Y.) spectrophotometrically over a period of 24 h by obtaining a measurement for the optical density at 600 nm (OD600) every two hours. […]

S. mutans (ATCC 25175) [5] = assay: as above; type: cell-based
Procedure: as §1, §2

S. epidermidis = assay: Antimicrobial activity on bio-coated titanium substrates, fluorescence imaging and ImageJ; type: cell-based
Description: Two surfaces, 99% pure titanium foil (Alfa Aesar 43677, Ward Hill, Mass.) and titanium implant discs cut from standard rods used in posterior lumbar surgery (University of Kansas Medical Center Department of Neurosurgery, Kansas City, Kans.) were used for evaluation of TiBP-Spacer5-AMP biocoating antimicrobial activity. Titanium foils were cut into squares measuring 0.5 mm thick×1 cm×1 cm and 6 mm diameter implant rods were cut by the University of Kansas Medical Center Department of Neurosurgery with a standard orthopedic surgical rod cutter into 3 mm long disc segments. […]
Antimicrobial activity of TiBP-Spacer5-AMP biocoated titanium surfaces against each bacterial strain was evaluated by culturing bacteria in 24 well plates containing bio-coated surfaces or bare, untreated control surfaces. […] Stained bacteria were imaged with a fluorescence microscope (Olympus Spin Disk Epifluorescent microscope, Richmond Hill, Ontario, Canada) at an excitation/emission wave number provided by the manufacturer. Five representative fluorescence images were taken for each sample (n=3) and the bacteria were quantified using ImageJ Software and then subjected to statistical analysis.

[6] = test system: S. epidermidis (ATCC 29886); assay: MIC in solution, OD600 over 24 h; type: cell-based; set-up: key to Growth: Entries with a “+” indicate bacterial growth did occur at that concentration of TiBP-Spacer5-AMP; entries with a “−” indicate inhibition of bacterial growth; details: for Growth: S. epidermidis
Procedure: as §1
(§3) The MIC of TiBP-Spacer5-AMP against S. mutans and S. epidermidis in solution was evaluated in 96 well plates (Corning Costar 3370, Corning, N.Y.) spectrophotometrically over a period of 24 h by obtaining a measurement for the optical density at 600 nm (OD600) every two hours. Optical density at 600 nm was measured using a Cytation3 microplate reader (Bio Tek Instruments, Winooski, Vt.). Bacteria grown to mid-log phase at a density of 10^7 CFU/mL were cultured at appropriate growth conditions in appropriate broth media only as a control or in broth media containing a range from 5-70 μM of TiBP-Spacer5-AMP for S. mutans and 1-10 μM for S. epidermidis. The OD600 measurements obtained, relating optical density to bacteria CFUs/mL, were plotted versus time to generate standard growth curves. The minimum concentration of TiBP-Spacer5-AMP at which no increase in optical density measurement, corresponding to no bacterial growth occurring was designated as the MIC. AlamarBlue assay (Invitrogen, Carlsbad, Calif.) was used for determination of a minimum bactericidal concentration of TiBP-Spacer5-AMP. Bacteria in broth media only and with the TiBPSpacer5-AMP concentrations described in the MIC experiments were prepared in 96 well plates. AlamarBlue reagent was added to experimental wells and incubated for two hours at 37° C. Experimental wells were observed and evaluated for color change. Wells corresponding to concentrations of TiBP-Spacer5-AMP where no color change occurred were determined to have bactericidal concentrations of the chimeric peptide.

S. mutans (ATCC 25175) [7] = assay: MIC in solution, OD600 over 24 h; type: cell-based; set-up: key to Growth: Entries with a “+” indicate bacterial growth did occur at that concentration of TiBP-Spacer5-AMP; entries with a “−” indicate inhibition of bacterial growth; details: for Growth: S. mutans
Procedure: as §1, §3

NIH/3T3 fibroblast = assay: Host cell attachment and spreading on coated titanium surfaces; type: cell-based; details: 60 μM bio-coating
Procedure: Host cell response was evaluated with a fibroblast cell line (NIH/3T3 ATCC CRL-1658). The fibroblast cells were cultured following the ATCC protocol. Briefly, cells were grown in DMEM media (Gibco 11995073, Carlsbad, Calif.) supplemented with 10% fetal bovine serum (Gibco 10437036) and 1% penicillin-streptomycin (Gibco 15070063) and incubated at 37° C. in a 5% CO2 atmosphere. Fibroblasts were passaged using 0.25% TrypsinEDTA (Gibco 25200072) and cells were counted to ensure correct seeding concentrations. Fibroblast cell response to 60 μM TiBP-Spacer5AMP bio-coating, 200 μg/mL collagen (Sigma C7661, St. Louis, Mo.) coating (positive control) and bare, untreated (negative control) titanium foil and implant surfaces was studied. Fibroblast cells at a concentration of 8×10^5 cells/mL were added to sterile 24 well plates containing TiBP-Spacer5-AMP coated, collagen coated, or bare, untreated foils or implants and incubated for 24 h at 37° C. in a 5% CO2 atmosphere. Fibroblast attachment and spreading were evaluated by fixing fibroblasts on titanium surfaces with 2% glutaraldehyde solution, followed by dehydration in 10%, 30%, 60%, 90% and 100% ethanol. Fixed fibroblasts on titanium surfaces were washed twice with PBS, permeabilized with TritonX (Sigma T8787), sealed with BSA (Fisher BioReagents BP671-10, Carlsbad, Calif.), and stained with Alexa Fluor488-Phalloidin dye (Invitrogen). Unbound dye was removed by washing with PBS and substrates were imaged with a fluorescent microscope at 4, 10 and 20 times magnification. Five representative images of each surface (n=3) were obtained and analyzed with ImageJ Software and then subjected to statistical analysis. Cell attachment was determined as number of cells per square millimeter and the percentage of the image surface covered by attached cells. Another measure of viability, metabolic activity was determined using a MTT (3-(4,5-dimethylthiazol-2-yl)-25-diphenyltetrazolium bromide) assay (Sigma M5655). […] Absorbance was measured at 570 nm.

Question: What does the source list for `CSCC[C@H](NC(=O)[C@@H](N)CS)C(=O)N[C@@H](CC(C)C)C(=O)N1CCC[C@H]1C(=O)N[C@@H](Cc1c[nH]cn1)C(=O)N[C@@H](Cc1c[nH]cn1)C(=O)NCC(=O)N[C@@H](C)C(=O)N[C@@H](CS)C(=O)O` [cHABP1, CMLPHHGAC (SEQ ID NO: 36)] (H-CMLPHHGAC-OH; N-terminus and C-terminus assumed)?
Answer: antibacterial activity by absorbance at 600 nm (FIG. 11) (S. mutans; S. mutans): some antibacterial activity in the higher tested concentrations; antibacterial activity by absorbance at 600 nm (FIG. 11) ([1]; E. coli): some antibacterial activity in the higher tested concentrations

Question: With “KRWWKWWRR [HHC-36, KRWWKWWRR (SEQ ID NO: 37)]” as the compound, how does the “S. mutans IC50” value (S. mutans) read?
Answer: 3 µg/mL

Question: What about the MIC value (S. mutans; S. mutans) of the same compound?
Answer: 10.8 µM

Question: And the “E. coli IC50” value [1]?
Answer: 12 µg/mL

Question: And the MIC estimate ([1]; Escherichia coli, ATCC 25922)?
Answer: 21.5 µM

Question: For “LKLLKKLLKLLKKL (SEQ ID NO: 8) [AMP, antimicrobial peptide]”, which “Minimum Inhibitory Concentration (MIC) S. mutans” value (S. mutans (ATCC 25175) [2]) is on record?
Answer: 38 µM

Question: And the “Minimum Inhibitory Concentration (MIC) S. epidermidis” value [3]?
Answer: 4 µM

Question: With “RPRENRGRERGL-GGG-LKLLKKLLKLLKKL (SEQ ID NO: 9) (RPRENRGRERGLGGGLKLLKKLLKLLKKL) [TiBP-Spacer3-AMP, comparative chimeric peptide with shorter spacer]” as the compound, how does the “Minimum Inhibitory Concentration (MIC) S. mutans” value (S. mutans (ATCC 25175) [2]) read?
Answer: 153 µM

Question: And the “Minimum Inhibitory Concentration (MIC) S. epidermidis” value [3]?
Answer: 5 µM

Question: Which bactericidal concentration [4] does the source give for “RPRENRGRERGLGSGGGLKLLKKLLKLLKKL [TiBP-Spacer5-AMP, RPRENRGRERGL-GSGGG-LKLLKKLLKLLKKL (SEQ ID NO: 10)]” here?
Answer: 10 µM

Question: And the bactericidal concentration (S. mutans (ATCC 25175) [5])?
Answer: 60 µM

Question: What about the “Fold Improvement Compared to Uncoated Ti Surfaces, Implants” value (S. epidermidis; implant discs coated at 10 μM) of the same compound?
Answer: 48 fold

Question: What about the “Fold Improvement Compared to Uncoated Ti Surfaces, Foils” value (S. epidermidis; titanium foil coated at 10 μM) of the same compound?
Answer: 33 fold

Question: What about the Growth ([6]; 1 μM) of the same compound?
Answer: +

Question: And the Growth ([6]; 2 μM)?
Answer: +

Question: And the Growth ([6]; 3 μM)?
Answer: +

Question: And the Growth ([6]; 4 μM)?
Answer: +

Question: What about the Growth ([6]; 5 μM) of the same compound?
Answer: +

Question: What about the Growth ([6]; 6 μM) of the same compound?
Answer: +

Question: What about the Growth ([6]; 7 μM) of the same compound?
Answer: +

Question: What about the Growth ([6]; 8 μM) of the same compound?
Answer: −

Question: And the “Minimum Inhibitory Concentration (MIC) S. epidermidis” value ([6]; in solution)?
Answer: 8 µM

Question: What about the Growth (S. mutans (ATCC 25175) [7]; 5 μM) of the same compound?
Answer: +

Question: What about the Growth (S. mutans (ATCC 25175) [7]; 10 μM) of the same compound?
Answer: +

Question: What about the Growth (S. mutans (ATCC 25175) [7]; 20 μM) of the same compound?
Answer: +

Question: And the Growth (S. mutans (ATCC 25175) [7]; 30 μM)?
Answer: +

Question: What about the Growth (S. mutans (ATCC 25175) [7]; 40 μM) of the same compound?
Answer: +

Question: And the Growth (S. mutans (ATCC 25175) [7]; 50 μM)?
Answer: −

Question: And the Growth (S. mutans (ATCC 25175) [7]; 60 μM)?
Answer: −

Question: And the Growth (S. mutans (ATCC 25175) [7]; 70 μM)?
Answer: −

Question: What about the “improvement (decrease) of MIC against S. mutans” value (S. mutans (ATCC 25175) [7]; compared to TiBP-Spacer3-AMP) of the same compound?
Answer: three-fold

Question: And the “Minimum Inhibitory Concentration (MIC) S. mutans” value (S. mutans (ATCC 25175) [7]; in solution)?
Answer: 50 µM

Question: What about the “fibroblast surface coverage (spreading)” value (NIH/3T3 fibroblast; titanium foils, compared to untreated control) of the same compound?
Answer: greater coverage

Question: What about the adhesion and spreading (NIH/3T3 fibroblast; titanium implants, compared to collagen positive control) of the same compound?
Answer: statistically comparable to the positive collagen controls

Question: What about the “cell attachment and spreading” value (NIH/3T3 fibroblast; titanium implants, compared to untreated control) of the same compound?
Answer: greater cell attachment and spreading compared to untreated controls; also recorded: statistically greater cell attachment and spreading properties
